Results from patent EP0576227A2, “2'-Deoxy-2',2'-difluoro(2,6,8-substituted) purine nucleosides having anti-viral and anti-cancer activity and intermediates” (ELI LILLY AND COMPANY, priority 1992, dated 1993).
≈ marks a conversion by molar mass, not a printed value.

Key:
[1] = tested on: human leukemia cells (CCRF-CEM cell line); assay: Growth inhibition of human leukemia cells (CCRF-CEM cytotoxicity screen); type: cell-based; conditions: concentration giving 50 percent growth inhibition; CCRF-CEM cell line
Description: In another aspect, the invention provides a method of treating susceptible neoplasms in mammals comprising administering to a mammal in need of such treatment a pharmaceutically effective amount of a compound of formula (I). […] The treatment contemplated by the present method includes both medical therapeutic and prophylactic treatment, as appropriate. The specific dosage level of the compound administered according to this invention will, of course, be determined by the circumstances surrounding the case, including, for example, the particular compound administered, the route of administration, and the condition being treated. The compounds are effectively administered orally, topically, or parenterally. […] The representative compounds of formula (I) employed in the present invention are cytotoxic as they inhibit the growth of rapidly dividing human leukemia cells (CCRF-CEM cell line). Table 1 below gives the results of testing several compounds representative of formula (I).

[2] = tested on: Human Cytomegalovirus (HCMV) strain AD169; assay: Human Cytomegalovirus Test (plaque inhibition in WI-38 cells); type: cell-based; conditions: read-out: Percent Plaque Inhibition at Specified µg/ml conc.
Description: WI-38 cells (American Type Culture Collection; CCL-35) were seeded into 24-well plates in MEM media (GIBCO) supplemented with 10% fetal bovine serum and penicillin/streptomycin. The plates wre incbated at 37°C, in 5 percent carbon dioxide in a humidified incubator for 3 days. Human Cytomegalovirus (HCMV) strain AD169 (American Type Culture Collection) was added to each well (40 plaque forming unites in 100 µl of media) and the virus was allowed to adsorb to the cells for 2 hours at room temperature. The compound of Example 5 was dissolved in 100 percent dimethylsulfoxide at a concentration of 20 mgs/ml and diluted with media to yield final concentrations of 50, 25, 12.5, 6.25, 3.13, 1.6, 0.8, 0.4, 0.2, and 0.1 µg/ml in one set of experiments and 32, 10, 3.2, 1, and 0.32 µg/ml in another set of experiments. Each concentration was done in duplicate. In all experiments, Cytovene (DHPG) was used as a positive control.
The infected cells were incubated for 10 days at 37°C, 5 percent carbon dioxide, in an humidified incubator without changes of media. After incubation, the cells were fixed for at least 15 minutes with 10 percent formalin and rinsed with water. After rinsing, the cells were stained for at least 15 minutes with crystal violet and allowed to dry. HCMV induced plaques were counted with the aid of an iverted microscope. The number of viral plaques appearing in cells treated with each concentration of the Example 5 compound was compared to the number of viral plaques in cells left untreated ("no-drug control") and the percent inhibition of viral plaque formation was calculated. The concentration of the Example 5 compound required to inhibit viral plaque formation by 50 percent was determined using linear regression analysis.

[3] = tested on: HC1 human colon carcinoma; assay: HC1 human colon carcinoma xenograft in mice, tumor weight inhibition; type: in vivo, Nu/Nu CD-1 mice; conditions: Intra-Peritoneal 0.5 ml, Daily X 10
Description: The HC1 human colon carcinoma xenograft was obtained in 1987 from Drs. Peter and Janet Houghton, St. Jude Children's Hospital, Memphis, TN. The tumor is a moderately well-differentiated adenocarcinoma of the ascending colon [British Journal of Cancer, 37, p 213-223 (1987)]. The first passage tumor was stored in liquid nitrogen using standard techniques. The tumors were maintained in serial passage Nu/Nu CD-1 mice (Charles River Laboratories, Portage, MI.).
The study testing the efficacy of these compounds against HC1 human colon carcinoma was initiated by removing a tumor from passage animals and mincing it into 1 to 3 mm square fragments using sterile techniques. Tumor pieces were checked for sterility using both an Antibiotic Medium 1 and Brain Heart Infusion (Difco; Detroit, MI). Tumor pieces were implanted subcutaneously in the auxilary region of recipient mice by trocar. Drug therapy on the appropriate schedule was initiated 14 days after tumor implantation. Drugs were dissolved in Emulphor for all experiments. All animals were weighed at the beginning and end of drug treatment. Food and water were provided ad libitum. On day 14 after the initiation of therapy, two dimensional measurements (width and length) of all tumors were taken using electronic calipers interfaced to a computer. Tumor weights were calculated from these measurements using the following formula: Tumor Weight (mg) = Tumor Length (mm) X Tumor Width (mm)²/2
For all data, the tumor weight was rounded to the nearest tenth of a gram for analysis. No group is included in the analysis for therapeutic activity in which deaths attributable to drug toxicity exceeded 20 percent of the treated group. Compounds are considered active if more than 60 percent inhibition of tumor growth, as determined by tumor weight, is achieved at maximally tolerated doses.
In Table 2 which follows, Column 1 gives the example number of the compound tested; Column 2, the dose level; Column 3, the route administered; Column 4, the dosage schedule; Column 5, the percent inhibition of the tumor; and Column 6; the toxic deaths observed prior to completion of the study.

Hepatitis B Virus = Hepatitis B Virus Test (HBV DNA in supernatant of Hep10A cells, PCR / Southern blot); type: cell-based, human Hepatitis B Virus (HBV); conditions: 240 h
Description: Plasmids were constructed using standard recombinant DNA techniques; see Sambrook, J., et al., Molecular Cloning: A Laboratory Manual, 2nd Edition (1989), Cold Spring Harbor Press, Cold Spring Harbor, NY. Plasmid pTHBV contains a head-to-tail dimer of the human Hepatitis B Virus (HBV) genome, subtype adw, clone into the EcoR I site of pUC9. […] and subcloned into the Sal I site of pTHBV after a two base fill-in reaction with the Klenow fragment of E. coli DNA polymerase I.
HepG2 cells (human hepatoblastoma, ATCC HB 8065) were routinely passaged in growth medium consisting of EARLE'S minimal essential media (Grand Island Biological Company (GIBCO) Bethesda Research Laboratories (BRL), Life Technologies, Inc., Gathersburg, MD.) supplemented with sodium pyruvate, 10 percent fetal bovine serum, 100 units/ml penicillin, and 100 µg/ml streptomycin. Hep10A cells were derived from HepG2 cells. Briefly, HepG2 cells were seeded into 60 mm culture dishes in growth medium, and when approximately 50 percent confluent, were transfected with pTHBVneo using the calcium phosphate precipitation method described by Graham, F.L. and Van der Eb in Virology, 52, p 456-467 (1973). After four hours of post-transfection, the cells were shocked with 10 percent dimethylsulfoxide and 20 percent glucose for 5 minutes, after which they were allowed to recover for 24 horus. The transfected cells were passaged and reseeded in the presence of growth medium containing 800 µg/ml geneticin. The cells were monitored for the appearance of geneticin resistant cells. A genecitin resistant cell line was established, and routinely passaged in growth medium containing 400 µg/ml geneticin. This cell line will be referred to as Hep10A.
Hep10A cells were seeded into 96-well microtiter plates at a density of approximately 50,000 cells per well, allowed to grow to confluence, and maintained at confluence for 2 to 4 days to allow Hepatitus B Virus derivative HBV DNA levels to stabilize; see Sells, M.A., et al., J. Virol., 62, p 2836-2844 (1987) and Korba, B.E., et al., Antiviral Res., 15, p 217-228 (1991). At this time, cells were treated with 2'-deoxy-2'-fluoroarabino-5-iodouridine (FIAU) and the compound of Example 5 for 10 days, with daily changes of media containing fresh drug. FIAU was used as a positive control. On day 10, culture supernatant samples were taken and stored at 4°C until needed. PCR analysis was performed on supernatant samples using appropriate primers to amplify a 477 base pair fragment from the "a" determinant of the surface antigen gene of HBV subtype adw. Following eletrophoresis through agarose gels, the DNA was transferred to nylon membranes (Optiblot™, IBI, New Haven, CT) by capillary action (Southern, 1975) using 1X saline sodium citrate (SSC) (1X SSC=0.15 M NaCl, 0.015 M sodium citrate). After baking in vacuo for 30 minutes, the blots were hybridized for 15 to 18 hours to 1x10⁶ cpm/ml of […] the method of random priming (Feinberg and Vogelstein, 1983). Hybridization was carried out at 42°C using 50 percent N,N-dimethylformamide, 6X saline sodium phosphate ethylenediamine tetraacetic acid (SSPE), 1.0 percent sodium dodyl sulfate (SDS), and 50 µg/ml salmon sperm DNA (1X SSPE=0.18 M NaCl; […] NaH₂PO₄, pH 7.4; 1 mmol ethylene diamine tetraacetic acid (EDTA)). The hybridized blots were washed as follows: twice in 2X SSC/0.1 percent SDS at room temperature for 1 hour, once in 0.1X SSC/0.1 percent SDS at room temperature for 30 minutes, and once in 0.1x SSC/0.1 percent supplemented with SDS at 65°C for 15 minutes. The filters were exposed to x-ray film and quantitated by densitometry.

[4] = read-out: Percent Inhibition at Specified µg/ml conc.

Nc1nc(S)c2ncn([C@@H]3O[C@H](CO)[C@@H](O)C3(F)F)c2n1 [(h), 2-deoxy-2,2-difluoro-D-ribofuranosyl-1-β-(2-amino-6-thiopurine)]
IC50 [1]: 4.3 µg/mL (≈ 13.5 µM)

Nc1nc2c(ncn2COC(CO)CO)c(=O)[nH]1 [Cytovene]
inhibition at 0.2 µg/mL ([2]; Human betaherpesvirus 5, AD169, 240 h, 0.2 µg/ml, WI-38 cells, 10 days): 31% | inhibition at 0.4 µg/mL ([2]; Human betaherpesvirus 5, AD169, 240 h, 0.4 µg/ml, WI-38 cells, 10 days): 31% | inhibition at 0.8 µg/mL ([2]; Human betaherpesvirus 5, AD169, 240 h, 0.8 µg/ml, WI-38 cells, 10 days): 40% | inhibition at 1.6 µg/mL ([2]; Human betaherpesvirus 5, AD169, 240 h, 1.6 µg/ml, WI-38 cells, 10 days): 65.5% | inhibition at 6.25 µg/mL ([2]; Human betaherpesvirus 5, AD169, 240 h, 6.25 µg/ml, WI-38 cells, 10 days): 98% | inhibition at 12.5 µg/mL ([2]; Human betaherpesvirus 5, AD169, 240 h, 12.5 µg/ml, WI-38 cells, 10 days): 100% | inhibition at 25 µg/mL ([2]; Human betaherpesvirus 5, AD169, 240 h, 25 µg/ml, WI-38 cells, 10 days): 100% | inhibition at 50 µg/mL ([2]; Human betaherpesvirus 5, AD169, 240 h, 50 µg/ml, WI-38 cells, 10 days): 100% | inhibition at 3.12 µg/mL ([2]; Human betaherpesvirus 5, AD169, WI-38, 240 h): 91%

Nc1nc(Cl)c2ncn([C@@H]3O[C@H](CO)[C@@H](O)C3(F)F)c2n1 [Example 1, 2-deoxy-2,2-difluoro-D-ribofuranosyl-1-β-(2-amino-6-chloropurine)]
IC50 [1]: 0.007 µg/mL (≈ 0.0218 µM)

COc1nc(N)nc2c1ncn2[C@@H]1O[C@H](CO)[C@@H](O)C1(F)F [Example 2, 2-deoxy-2,2-difluoro-D-ribofuranosyl-1-β-(2-amino-6-methoxypurine)]
IC50 [1]: 0.037 µg/mL (≈ 0.117 µM)

CCOc1nc(N)nc2c1ncn2[C@@H]1O[C@H](CO)[C@@H](O)C1(F)F [Example 3, 2-deoxy-2,2-difluoro-D-ribofuranosyl-1-β-(2-amino-6-ethoxypurine)]
Percent Inhibition of Tumor ([3]; 25 mg/kg): 98% | Toxic Deaths ([3]; 25 mg/kg): 0/10 | Percent Inhibition of Tumor ([3]; 50 mg/kg): 97% | Toxic Deaths ([3]; 50 mg/kg): 0/10 | Percent Inhibition of Tumor ([3]; 100 mg/kg): 98% | Toxic Deaths ([3]; 100 mg/kg): 0/10 | IC50 [1]: 0.2 µg/mL (≈ 0.604 µM)

CN(C)c1nc(N)nc2c1ncn2[C@@H]1O[C@H](CO)[C@@H](O)C1(F)F [Example 4, 2-deoxy-2,2-difluoro-D-ribofuranosyl-1-β-(2-amino-6-dimethylaminopurine)]
IC50 [1]: 4.6 µg/mL (≈ 13.9 µM)

Nc1nc(I)c2ncn([C@@H]3O[C@H](CO)[C@@H](O)C3(F)F)c2n1 [Example 6, 2-deoxy-2,2-difluoro-D-ribofuranosyl-1-β-(2-amino-6-iodopurine)]
IC50 [1]: 0.093 µg/mL (≈ 0.225 µM)

N#Cc1nc(N)nc2c1ncn2[C@@H]1O[C@H](CO)[C@@H](O)C1(F)F [Example 7, 2-deoxy-2,2-difluoro-D-ribofuranosyl-1-β-(2-amino-6-cyanopurine)]
IC50 [1]: 2.5 µg/mL (≈ 8.01 µM)

Nc1nc(O)nc2c1ncn2[C@@H]1O[C@H](CO)[C@@H](O)C1(F)F [Example 9, 2-deoxy-2,2-difluoro-D-ribofuranosyl-1-β-(2-hydroxyadenosine)]
IC50 [1]: 0.7 µg/mL (≈ 2.31 µM)

Nc1nc(F)nc2c1ncn2[C@@H]1O[C@H](CO)[C@@H](O)C1(F)F [Example 10, 2-deoxy-2,2-difluoro-D-ribofuranosyl-1-β-(2-fluoroadenosine)]
IC50 [1]: 0.094 µg/mL (≈ 0.308 µM)

OC[C@H]1O[C@@H](n2cnc3cncnc32)C(F)(F)[C@@H]1O [Example 11, 2-deoxy-2,2-difluoro-D-ribofuranosyl-1-β-purine]
IC50 [1]: 1.3 µg/mL (≈ 4.78 µM)

Cc1nc(N)nc2c1ncn2[C@@H]1O[C@H](CO)[C@@H](O)C1(F)F [Example 13, 2-deoxy-2,2-difluoro-D-ribofuranosyl-1-β-(2-amino-6-methylpurine)]
IC50 [1]: 2.6 µg/mL (≈ 8.63 µM)

O=c1[nH]c(=O)n([C@@H]2O[C@H](CO)[C@@H](O)[C@@H]2F)cc1I [FIAU, 2'-deoxy-2'-fluoroarabino-5-iodouridine, reference compound]
inhibition at 0.1 µg/mL (Hepatitis B Virus; [4]): 10.8% | inhibition at 1 µg/mL (Hepatitis B Virus; [4]): 35.5% | inhibition at 10 µg/mL (Hepatitis B Virus; [4]): 65.3% | inhibition at 100 µg/mL (Hepatitis B Virus; [4]): 81.7% | IC50 (Hepatitis B Virus; read-out: concentration required to inhibit HBV DNA replication by 50 percent): 5.4 µg/mL (≈ 14.5 µM)
